Test: Dog PK study #4 (Compound A PO daily 14 days, 1/3/10 mg/kg; toxicokinetics, platelet counts)
Type: in vivo, beagle dogs
Details: for Mean Platelet Count: Day 15 following 14 days of administration; for concentration at 0.5 h / concentration at 1 h / concentration at 2 h / concentration at 4 h / concentration at 8 h / concentration at 24 h: beagle, dog, plasma, oral, after daily administration for 14 days
Method: The different doses of compound A were orally administered to animals (n=2/group, one male and one female animal) daily for 14 days.
Blood samples were collected at 0.5, 1, 2, 4, 8, and 24 hours after administration of Compound A on Day 14, and EDTA-K2 was used as an anticoagulant. Within 30 minutes of collection, the samples were centrifuged at approximately 2000×g for 10 minutes at 4° C. to obtain blood plasma. The samples were immediately divided into aliquots, transferred to cryogenic vials, and stored in a freezer at −75+15° C. prior to analysis.
The concentration of Compound A in the blood plasma was determined through liquid chromatography-mass spectrometry (LC-MS). The experiments were conducted on a Shimadzu UPLC and AB API 6500+LC/MS/MS with a Water […] UPLC HSS T3 1.8 μm (50×2.1 mm) column. A gradient of 0.1% formic acid in water/0.1% formic acid in acetonitrile was used as the mobile phase. The sample injection volume was 1 μL. The flow rate was 0.6 mL/min.
The desired serial concentrations of working solutions were achieved by diluting 30 μL of sample (control standard, QC standard, test samples) with 30 μL of a 50% acetonitrile in water solution (for double blanks) or 30 μL of the IS mixture (Compound B 80 ng/ml in 50% acetonitrile). 240 μL of 100% acetonitrile was then added and samples were vortexed for 5 min and centrifuged at 3200×g at 4° C. for 10 min. 100 μL of the supernatant was transferred and then diluted with 50% acetonitrile. Samples were then vortexed for about 5 min before injection into the LC/MS/MS system for quantitative analysis.

[1] = both sexes, 1 mg/kg, Pooled Mean
[2] = both sexes, 3 mg/kg, Pooled Mean
[3] = both sexes, 10 mg/kg, Pooled Mean

In the case of `Cn1cc(-c2ccccc2)c(-c2cn(C)c(=O)c3[nH]c(-c4cnn(C(F)(F)F)c4)cc23)cc1=O` [Compound A, 6-methyl-4-(1-methyl-2-oxo-5-phenyl-1,2-dihydropyridin-4-yl)-2-(1-(trifluoromethyl)-1H-pyrazol-4-yl)-1,6-dihydro-7H-pyrrolo[2,3-c]pyridin-7-one], the “exposure difference between male and female animals” value (Day 14) is reported as “no exposure differences”, the “plasma concentration relative to BD2 BRD4 and BD1 BRD4 free EC50” value (Day 14, 1, 3 and 10 mg/kg, all time points over 24 hours) is reported as “remained well above the BD2 BRD4 EC50” and the “time of peak (or plateau) plasma concentration” value (Day 14, all animals) is reported as “approximately 2 hours”. The “platelet counts relative to vehicle” value (Day 15, after 14 days of 1, 3 or 10 mg/kg) was “no appreciable difference in platelet counts”, the “Mean Platelet Count” value (1 mg/kg) was 260750 µL⁻¹ and the “Mean Platelet Count” value (3 mg/kg) was 241000 µL⁻¹. For the same molecule, the “Mean Platelet Count” value (10 mg/kg) was 293000 µL⁻¹, the concentration at 0.5 h (1 mg/kg, Female) was 27.8 ng/mL and the concentration at 1 h (1 mg/kg, Female) was 57.9 ng/mL. For the same molecule, the concentration at 2 h (1 mg/kg, Female) was 70.1 ng/mL, the concentration at 4 h (1 mg/kg, Female) was 55.9 ng/mL and the concentration at 8 h (1 mg/kg, Female) was 25.7 ng/mL. For the same molecule, the concentration at 24 h (1 mg/kg, Female) was 10.3 ng/mL, the concentration at 0.5 h (1 mg/kg, Male) was 31.6 ng/mL and the concentration at 1 h (1 mg/kg, Male) was 56.7 ng/mL. For the same molecule, the concentration at 2 h (1 mg/kg, Male) was 60.8 ng/mL, the concentration at 4 h (1 mg/kg, Male) was 44.8 ng/mL and the concentration at 8 h (1 mg/kg, Male) was 24.5 ng/mL. The concentration at 24 h (1 mg/kg, Male) was 25.1 ng/mL, the concentration at 0.5 h (3 mg/kg, Female) was 152 ng/mL and the concentration at 1 h (3 mg/kg, Female) was 324 ng/mL. It also gave a concentration at 2 h (3 mg/kg, Female) of 320 ng/mL, a concentration at 4 h (3 mg/kg, Female) of 230 ng/mL and a concentration at 8 h (3 mg/kg, Female) of 87.5 ng/mL. It also gave a concentration at 24 h (3 mg/kg, Female) of 14.2 ng/mL, a concentration at 0.5 h (3 mg/kg, Male) of 98.3 ng/mL and a concentration at 1 h (3 mg/kg, Male) of 201 ng/mL. It also gave a concentration at 2 h (3 mg/kg, Male) of 265 ng/mL, a concentration at 4 h (3 mg/kg, Male) of 245 ng/mL and a concentration at 8 h (3 mg/kg, Male) of 165 ng/mL. It also gave a concentration at 24 h (3 mg/kg, Male) of 33 ng/mL, a concentration at 0.5 h (10 mg/kg, Female) of 1130 ng/mL and a concentration at 1 h (10 mg/kg, Female) of 1630 ng/mL. It also gave a concentration at 2 h (10 mg/kg, Female) of 1680 ng/mL, a concentration at 4 h (10 mg/kg, Female) of 1070 ng/mL and a concentration at 8 h (10 mg/kg, Female) of 342 ng/mL. The concentration at 24 h (10 mg/kg, Female) was 61.6 ng/mL, the concentration at 0.5 h (10 mg/kg, Male) was 1010 ng/mL and the concentration at 1 h (10 mg/kg, Male) was 1450 ng/mL. It also gave a concentration at 2 h (10 mg/kg, Male) of 1490 ng/mL, a concentration at 4 h (10 mg/kg, Male) of 1350 ng/mL and a concentration at 8 h (10 mg/kg, Male) of 646 ng/mL. The concentration at 24 h (10 mg/kg, Male) was 145 ng/mL, the concentration at 0.5 h [1] was 29.7 ng/mL and the concentration at 1 h [1] was 57.3 ng/mL. The concentration at 2 h [1] was 65.5 ng/mL, the concentration at 4 h [1] was 50.4 ng/mL and the concentration at 8 h [1] was 25.1 ng/mL. For the same molecule, the concentration at 24 h [1] was 17.7 ng/mL, the concentration at 0.5 h [2] was 125 ng/mL and the concentration at 1 h [2] was 262 ng/mL. It also gave a concentration at 2 h [2] of 292 ng/mL, a concentration at 4 h [2] of 238 ng/mL and a concentration at 8 h [2] of 126 ng/mL. For the same molecule, the concentration at 24 h [2] was 23.6 ng/mL, the concentration at 0.5 h [3] was 1070 ng/mL and the concentration at 1 h [3] was 1540 ng/mL. The concentration at 2 h [3] was 1580 ng/mL, the concentration at 4 h [3] was 1210 ng/mL and the concentration at 8 h [3] was 494 ng/mL. For the same molecule, the concentration at 24 h [3] was 103 ng/mL.

Source: US20260217701A1, “SELECTIVE BET INHIBITORS AND USES THEREOF” (Tay Therapeutics Limited, priority 2022, published 2026)
